Source: patent US8278304B2, “Substituted 4-hydroxypyrimidine-5-carboxamides” (Merck Sharp & Dohme Corp., priority 2008, dated 2012)

Target: T1, PHD2 (Homo sapiens, UniProt Q9GZT9)
T1 construct: FLAG-tagged full length PHD2 expressed in and purified from baculovirus-infected Sf9 cells; FLAG; made in house; host or cells: baculovirus-infected Sf9 cells
Assay: PHD2 / HIF-1α peptide hydroxylation assay, time resolved fluorescence (VHL complex detection)
Format: biochemical
Details: FLAG-tagged full length PHD2; 0.2 μM 2-oxoglutarate, 0.5 μM HIF-1α peptide; read-out: PHD2 Activity (PHD2 binding activity expressed as IC50 (nM))
Experimental: To each well of a 96-well plate was added 1 μL of test compound in DMSO and 20 μl of assay buffer (50 mM Tris pH 7.4/0.01% Tween-20/0.1 mg/ml bovine serum albumin/10 μM ferrous sulfate/1 mM sodium ascorbate/20 μg/ml catalase) containing 0.15 μg/ml FLAG-tagged full length PHD2 expressed in and purified from baculovirus-infected Sf9 cells. After a 30 min preincubation at room temperature, the enzymatic reactions were initiated by the addition of 4 μL of substrates (final concentrations of 0.2 μM 2-oxoglutarate and 0.5 μM HIF-1α peptide biotinyl-[…]).

T1 sequence (Q9GZT9 whole entry): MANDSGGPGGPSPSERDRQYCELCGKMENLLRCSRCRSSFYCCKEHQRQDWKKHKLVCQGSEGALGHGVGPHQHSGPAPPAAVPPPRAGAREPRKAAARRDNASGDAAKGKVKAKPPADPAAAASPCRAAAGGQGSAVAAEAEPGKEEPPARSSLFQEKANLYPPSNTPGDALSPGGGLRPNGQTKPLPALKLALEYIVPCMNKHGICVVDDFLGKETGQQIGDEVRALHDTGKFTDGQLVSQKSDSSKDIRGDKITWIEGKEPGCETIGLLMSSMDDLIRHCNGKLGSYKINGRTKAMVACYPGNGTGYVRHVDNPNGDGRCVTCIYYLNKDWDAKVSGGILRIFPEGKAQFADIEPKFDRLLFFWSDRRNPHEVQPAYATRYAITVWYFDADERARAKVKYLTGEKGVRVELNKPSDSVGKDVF

Compound | IC50 [nM]
O=C(NCc1ccc(C(F)(F)F)nc1)c1cnc(-n2cccn2)nc1O [Example 10] | 10 to 100
CC(NC(=O)c1cnc(-c2ccccn2)nc1O)c1ccc(F)cc1 (stereo not shown) [Example 12, N-[1-(4-fluorophenyl)ethyl]-4-hydroxy-2-pyridin-2-ylpyrimidine-5-carboxamide] | 10 to 100
COc1ccc(C(NC(=O)c2cnc(-c3ccccn3)nc2O)c2ccc(OC)cc2)cc1 [Example 14, N-[bis(4-methoxyphenyl)methyl]-4-hydroxy-2-pyridin-2-ylpyrimidine-5-carboxamide] | ≤ 10
Cc1cccc(-c2ncc(C(=O)Nc3ccc(F)cc3Cl)c(O)n2)n1 [Example 16, N-(2-chloro-4-fluorophenyl)-4-hydroxy-2-(6-methylpyridin-2-yl)pyrimidine-5-carboxamide] | 1000 to 10000
O=C(NCc1ccc(F)cc1)c1cnc(-c2cnccn2)nc1O [Example 18, N-(4-fluorobenzyl)-4-hydroxy-2-pyrazin-2-ylpyrimidine-5-carboxamide] | 100 to 1000
CC(C)(NC(=O)c1cnc(-c2cnccn2)nc1O)c1ccccc1 [Example 19, 4-Hydroxy-N-(1-methyl-1-phenylethyl)-2-pyrazin-2-ylpyrimidine-5-carboxamide] | 10 to 100
O=C(NCc1ccc(C(F)(F)F)cc1)c1cnc(-c2ncccn2)nc1O [Example 23, 4-Hydroxy-N-[4-(trifluoromethyl)benzyl]-2,2′-bipyrimidine-5-carboxamide] | 100 to 1000
O=C(NCc1ccccc1Cl)c1cnc(-c2cccnn2)nc1O [Example 24, N-(2-chlorobenzyl)-4-hydroxy-2-pyridazin-3-ylpyrimidine-5-carboxamide] | 10 to 100
Cc1nc(-c2ncc(C(=O)NCc3ccc(C(F)(F)F)cc3)c(O)n2)cs1 [Example 29, 4-Hydroxy-2-(2-methyl-1,3-thiazol-4-yl)-N-[4-(trifluoromethyl)benzyl]pyrimidine-5-carboxamide] | 10 to 100
Cc1nc(-c2ncc(C(=O)NCCc3ccc(F)cc3)c(O)n2)cs1 [Example 32, N-[2-(4-fluorophenyl)ethyl]-4-hydroxy-2-(2-methyl-1,3-thiazol-4-yl)pyrimidine-5-carboxamide] | 100 to 1000
Cc1nc(-c2ncc(C(=O)NCc3ccc(Cl)cc3Cl)c(O)n2)cs1 [Example 37, N-(2,4-dichlorobenzyl)-4-hydroxy-2-(2-methyl-1,3-thiazol-4-yl)pyrimidine-5-carboxamide] | 10 to 100
Cc1nc(-c2ncc(C(=O)NC(c3ccccc3)c3ccccc3)c(O)n2)cs1 [Example 39, N-(diphenylmethyl)-4-hydroxy-2-(2-methyl-1,3-thiazol-4-yl)pyrimidine-5-carboxamide] | 10 to 100
Cc1nc(-c2ncc(C(=O)NC(C)(C)C)c(O)n2)cs1 [Example 40, N-(tert-butyl)-4-hydroxy-2-(2-methyl-1,3-thiazol-4-yl)pyrimidine-5-carboxamide] | 100 to 1000

Second part, the molecule after the results:

IC50 [nM] | Compound
1000 to 10000 | O=C(NCc1ccc(F)cc1)c1cnc(-c2ccc(C(F)(F)F)cn2)nc1O [Example 11, N-(4-fluorobenzyl)-4-hydroxy-2-[5-(trifluoromethyl)pyridin-2-yl]pyrimidine-5-carboxamide]
100 to 1000 | Cc1cccc(-c2ncc(C(=O)NCc3ccc(-c4ccccc4)cc3)c(O)n2)n1 [Example 15, N-(biphenyl-4-ylmethyl)-4-hydroxy-2-(6-methylpyridin-2-yl)pyrimidine-5-carboxamide]
100 to 1000 | Cc1cccc(-c2ncc(C(=O)NCc3ccc(Cl)cc3Cl)c(O)n2)n1 [Example 17, N-(2,4-dichlorobenzyl)-4-hydroxy-2-(6-methylpyridin-2-yl)pyrimidine-5-carboxamide]
10 to 100 | O=C(NCc1ccc(C(F)(F)F)cc1)c1cnc(-c2cnccn2)nc1O [Example 20, 4-Hydroxy-2-pyrazin-2-yl-N-[4-(trifluoromethyl)benzyl]pyrimidine-5-carboxamide]
1000 to 10000 | O=C(NCc1ccc(F)cc1)c1cnc(-c2ncccn2)nc1O [Example 21, N-(4-fluorobenzyl)-4-hydroxy-2,2′-bipyrimidine-5-carboxamide]
≤ 10 | C[C@H](NC(=O)c1cnc(-c2cccnn2)nc1O)c1ccc(Br)cc1 [Example 25, N-[(1S)-1-(4-bromophenyl)ethyl]-4-hydroxy-2-pyridazin-3-ylpyrimidine-5-carboxamide]
≤ 10 | O=C(NC1(c2ccccc2)CCCCC1)c1cnc(-c2cccnn2)nc1O [Example 27, 4-hydroxy-N-(1-phenylcyclohexyl)-2-pyridazin-3-ylpyrimidine-5-carboxamide]
≤ 10 | O=C(NCc1ccc(-c2ccccc2)cc1)c1cnc(-c2cccnn2)nc1O [Example 28, N-(biphenyl-4-ylmethyl)-4-hydroxy-2-pyridazin-3-ylpyrimidine-5-carboxamide]
10 to 100 | Cc1nc(-c2ncc(C(=O)NCc3ccc(-c4ccccc4)cc3)c(O)n2)cs1 [Example 30, N-(biphenyl-4-ylmethyl)-4-hydroxy-2-(2-methyl-1,3-thiazol-4-yl)pyrimidine-5-carboxamide]
100 to 1000 | Cc1nc(-c2ncc(C(=O)NCc3ccc(OC(F)(F)F)cc3)c(O)n2)cs1 [Example 31, 4-Hydroxy-2-(2-methyl-1,3-thiazol-4-yl)-N-[4-(trifluoromethoxy)benzyl]pyrimidine-5-carboxamide]
1000 to 10000 | Cc1nc(-c2ncc(C(=O)Nc3ccc(C(F)(F)F)cc3)c(O)n2)cs1 [Example 34, 4-Hydroxy-2-(2-methyl-1,3-thiazol-4-yl)-N-[4-(trifluoromethyl)phenyl]pyrimidine-5-carboxamide]
10 to 100 | CC[C@H](NC(=O)c1cnc(-c2csc(C)n2)nc1O)c1ccccc1 [Example 35, 4-Hydroxy-2-(2-methyl-1,3-thiazol-4-yl)-N-[(1S)-1-phenylpropyl]pyrimidine-5-carboxamide]
10 to 100 | CC[C@@H](NC(=O)c1cnc(-c2csc(C)n2)nc1O)c1ccccc1 [Example 36, 4-Hydroxy-2-(2-methyl-1,3-thiazol-4-yl)-N-[(1R)-1-phenylpropyl]pyrimidine-5-carboxamide]
100 to 1000 | Cc1nc(-c2ncc(C(=O)Nc3ccc(F)cc3Cl)c(O)n2)cs1 [Example 38, N-(2-chloro-4-fluorophenyl)-4-hydroxy-2-(2-methyl-1,3-thiazol-4-yl)pyrimidine-5-carboxamide]
100 to 1000 | CC[C@H](NC(=O)c1cnc(-c2nc(C)cs2)nc1O)c1ccccc1 [Example 41, 4-Hydroxy-2-(4-methyl-1,3-thiazol-2-yl)-N-[(1S)-1-phenylpropyl]pyrimidine-5-carboxamide]
10 to 100 | Cc1nc(-c2ncc(C(=O)NCc3cccc(-c4ccccc4)c3)c(O)n2)cs1 [Example 42, N-(biphenyl-3-ylmethyl)-4-hydroxy-2-(2-methyl-1,3-thiazol-4-yl)pyrimidine-5-carboxamide]
100 to 1000 | Cc1cc(C)n(-c2ncc(C(=O)NCc3ccc(OC(F)(F)F)cc3)c(O)n2)n1 [Example 44, 2-(3,5-Dimethyl-1H-pyrazol-1-yl)-4-hydroxy-N-[4-(trifluoromethoxy)benzyl]pyrimidine-5-carboxamide]
100 to 1000 | O=C(NC(c1ccccc1)c1ccccc1)c1cnc(-c2ccc[nH]2)nc1O [Example 45, N-(diphenylmethyl)-4-hydroxy-2-(1H-pyrrol-2-yl)pyrimidine-5-carboxamide]
